According to US7517658B2, “Methods for preparing compositions using a SNORF33 receptor” (H. Lundbeck A/S, priority 1999, dated 2009):
Several values for one entry are separate records, joined by “and”; a condition that tells them apart may be missing. Equal values may be shown once.

Tests used:
[1] = biological target: T1, mouse SNORF33 (Mus musculus, UniProt Q923Y8); experiment: [3H]-TYR binding (saturation and displacement) to mouse SNORF33 COS-7 membranes; conditions: mouse SNORF33, displacement of [3H]TYR; read-out: Ki (individual determinations)
T1 construct: expressed in transfected cells; host or cells: COS-7 (membranes)
Description: (§1) [^3H]-TYR and [^3H]-T binding assays were performed essentially as described by Mallard et al. (1992), with minor modifications. Radioligand binding assays were performed by diluting membranes prepared from cells expressing the receptor (with co-expression of the rat G-protein alpha S subunit for human SNORF33) in 25 mM Gly-Gly buffer (Sigma, pH=7.4 @ 0° C.) containing 5 mM ascorbate and 10 μM pargyline (final protein concentration in assay=100-300 μg/ml). Membranes were then incubated with either [^3H]-TYR (American Radiochemicals, specific activity 60 mCi/μmole) or [^3H]-T (Amersham, specific activity 98 mCi/μmole) in the presence or absence of competing ligands on ice for 30 min in a total volume of 250 μl in 96 well microtiter plates. The bound ligand was separated from free by filtration through GF/B filters presoaked in 0.5% polyethyleneimine (PEI), using Tomtec (Wallac) or Brandel Cell Harvester vacuum filtration device. After addition of Ready Safe (Beckman) scintillation fluid, bound radioactivity was quantitated using a Trilux (Wallac) scintillation counter (approximately 20% counting efficiency of bound counts). Data was fit to non-linear curves using GraphPad Prism.
(§2) In this manner, agonist or antagonist compounds that bind to the receptor may be identified as they inhibit the binding of the labeled ligand to the membrane protein of cells expressing the said receptor. Non-specific binding was defined as the amount of radioactivity remaining after incubation of membrane protein in the presence of 10 μM of the unlabeled amine corresponding to the radioligand used. In equilibrium saturation binding assays, membrane preparations or intact cells transfected with the receptor are incubated in the presence of increasing concentrations of the labeled compound to determine the binding affinity of the labeled ligand. The binding affinities of unlabeled compounds may be determined in equilibrium competition binding assays, using a fixed concentration of labeled compound in the presence of varying concentrations of the displacing ligands.

[2] = biological target: T2, rSNORF33 (Rattus norvegicus, UniProt Q923Y9); experiment: [3H]-TYR binding (saturation and displacement) to rSNORF33-transfected COS-7 membranes; parameters: expressed in transfected cells; host or cells: COS-7 (transient); conditions: rSNORF33 in transfected COS-7 membranes; 2–4 experiments; read-out: Mean Ki ± S.D.M., displacement of [3H]-tyramine
Description: as §1, with “Radioligand” for “[^3H]-TYR and [^3H]-T binding assays were performed essentially as described by Mallard et al. (1992), with minor modifications. Radioligand”
as §2

[3] = biological target: T3, hSNORF33 (Homo sapiens, UniProt Q96RJ0); experiment: [3H]-TYR binding (saturation and displacement) to human SNORF33 COS-7 membranes; parameters: expressed in transfected cells; host or cells: COS-7 (membranes); conditions: human SNORF33 in transfected COS-7 membranes; read-out: Mean Ki ± S.D.M., displacement of [3H]-tyramine
T3 sequence (Q96RJ0 1-339): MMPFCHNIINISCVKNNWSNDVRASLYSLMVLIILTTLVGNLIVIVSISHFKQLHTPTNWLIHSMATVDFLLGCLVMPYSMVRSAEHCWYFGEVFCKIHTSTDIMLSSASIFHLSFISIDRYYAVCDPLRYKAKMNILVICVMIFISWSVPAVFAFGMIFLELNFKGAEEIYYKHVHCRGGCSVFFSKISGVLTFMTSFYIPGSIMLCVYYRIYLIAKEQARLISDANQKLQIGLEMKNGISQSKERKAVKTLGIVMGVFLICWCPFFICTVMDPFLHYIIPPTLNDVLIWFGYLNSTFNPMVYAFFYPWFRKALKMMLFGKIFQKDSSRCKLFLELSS
Description: as §1, §2

[4] = biological target: T2, rSNORF33; experiment: Intracellular cAMP release in rSNORF33-transfected COS-7 cells; assay type: cell-based; parameters: expressed in transfected cells; host or cells: COS-7 (transient)
Description: (§3) The receptor-mediated stimulation or inhibition of cyclic AMP (cAMP) formation may be assayed in cells expressing the mammalian receptors. Cells are plated in 96-well plates or other vessels and preincubated in a buffer such as HEPES buffered saline (NaCl (150 mM), CaCl2 (1 mM), KCl (5 mM), glucose (10 mM)) supplemented with a phosphodiesterase inhibitor such as 5 mM theophylline, with or without protease inhibitor cocktail (For example, a typical inhibitor cocktail contains 2 μg/ml aprotinin, […] leupeptin, and 10 μg/ml phosphoramidon.) for 20 min at 37° C., in 5% CO2. Test compounds are added with or without […] forskolin and incubated for an additional 10 min at 37° C. The medium is then aspirated and the reaction stopped by the addition of 100 mM HCl or other methods. The plates are stored at 4° C. for 15 min, and the cAMP content in the stopping solution is measured by radioimmunoassay. Radioactivity may be quantified using a gamma counter equipped with data reduction software. Specific modifications may be performed to optimize the assay for the receptor or to alter the detection method of cAMP.
(§4) COS-7 cells were transiently transfected with rSNORF33 gene using the calcium phosphate method and plated in 96-well plates. 48 hours after transfection, cells were washed twice with Dulbecco's phosphate buffered saline (PBS) supplemented with 10 mM HEPES, 10 mM glucose, 5 mM theophylline and 10 μM pargyline and were incubated in the same buffer for 20 min at 37° C., in […] 5% CO2. Test compounds were added and cells were incubated for an additional 10 min at 37° C. The medium was then aspirated and the reaction stopped by the addition of 100 mM HCl. The plates were stored at −20° C. for 2-5 days. For cAMP measurement, plates were thawed and the cAMP content in each well was measured by radioimmunoassay cAMP Scintillation Proximity Assay (Amersham Pharmacia Biotech). Radioactivity was quantified using microbeta Trilux counter (Wallac).

[5] = biological target: T3, hSNORF33; experiment: Intracellular cAMP release in human SNORF33-transfected COS-7 cells; assay type: cell-based; parameters: expressed in transfected cells; host or cells: COS-7 (transient)
Description: as §3, §4

[6] = biological target: T1, mouse SNORF33; experiment: cAMP assay at mouse SNORF33; assay type: cell-based
Description: as §3, §4

T1 sequence (Q923Y8 whole entry): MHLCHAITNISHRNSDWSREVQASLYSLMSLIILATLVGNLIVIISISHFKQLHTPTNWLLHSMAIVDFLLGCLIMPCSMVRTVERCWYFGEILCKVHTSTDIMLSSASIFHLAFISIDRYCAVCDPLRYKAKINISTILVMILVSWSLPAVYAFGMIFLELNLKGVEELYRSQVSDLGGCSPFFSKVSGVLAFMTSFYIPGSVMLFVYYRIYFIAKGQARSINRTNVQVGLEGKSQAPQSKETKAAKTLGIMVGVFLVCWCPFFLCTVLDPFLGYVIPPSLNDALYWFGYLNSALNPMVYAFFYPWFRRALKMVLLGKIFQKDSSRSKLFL
T2 sequence (Q923Y9 whole entry): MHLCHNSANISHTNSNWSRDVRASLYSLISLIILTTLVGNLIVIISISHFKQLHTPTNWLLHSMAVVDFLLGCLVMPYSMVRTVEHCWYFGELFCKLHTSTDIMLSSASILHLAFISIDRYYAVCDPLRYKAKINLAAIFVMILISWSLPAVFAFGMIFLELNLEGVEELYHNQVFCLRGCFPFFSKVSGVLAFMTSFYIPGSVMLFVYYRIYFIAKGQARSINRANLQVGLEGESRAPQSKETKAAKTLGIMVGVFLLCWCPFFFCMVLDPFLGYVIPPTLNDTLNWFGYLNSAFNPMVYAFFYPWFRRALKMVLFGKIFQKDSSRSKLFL

**Q.** `NCCc1ccccc1` [β-Phenylethylamine (PEA), β-Phenylethylamine] was tested. Which Ki [1] did it give?
**A.** 19 nM and 47 nM

**Q.** What about the Ki [2] of the same molecule?
**A.** 56 ± 21 nM

**Q.** And the Ki [3]?
**A.** 8 ± 6 nM

**Q.** What about the EC50 [4] of the same molecule?
**A.** 10 ± 1 nM

**Q.** And the EC50 [5]?
**A.** 216 ± 149 nM

**Q.** What about the “Agonism in the cAMP assay” value [6] of the same molecule?
**A.** full agonists
